Test results as given in US12077503B2, “Substituted cyclic amides and their use as herbicides” (FMC CORPORATION, priority 2015, dated 2024).

Key:
Type in all cases: in vivo
[1] = test system: barnyardgrass (Echinochloa crus-galli); assay: Test G Pre-Emergence Protocol; settings: Echinochloa crus-galli, pre-emergence, 312 h, evaluated after 13 days; for pest or weed control at 15.625 g/ha: 15.625 g ai/ha, read-out: Barnyard grass damage rating (100=total damage to plant; 0=no damage to plant); for pest or weed control at 62.5 g/ha: 62.5 g ai/ha, 100=total damage to plant, 0=no damage to plant, read-out: plant damage rating, Barnyardgrass; for pest or weed control at 250 g/ha: 250 g ai/ha, read-out: Barnyardgrass damage rating (100=total damage to plant; 0=no damage to plant)
Outline: (§1)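 Seeds were sown in standard soil and kept one day in a glasshouse (24/16° C day/night, 14 h light, 65% humidity), then sprayed with compound in acetone/water (50:50) containing 0.5% Tween 20 at 15.625, 62.5 or 250 g/ha. Damage was scored after 13 days (0 = none, 100 = total).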

[2] = test system: ivy-leaved morning glory (Ipomoea hederacea); assay: Test G Pre-Emergence Protocol; settings: Ipomoea, pre-emergence, 312 h, evaluated after 13 days; for pest or weed control at 15.625 g/ha: 15.625 g ai/ha, read-out: Morning-glory, Ivy-leaved damage rating (100=total damage to plant; 0=no damage to plant); for pest or weed control at 62.5 g/ha: 62.5 g ai/ha, 100=total damage to plant, 0=no damage to plant, read-out: plant damage rating, Morningglory, Ivy-leaved; for pest or weed control at 250 g/ha: 250 g ai/ha, read-out: Morningglory, Ivy-leaved damage rating (100=total damage to plant; 0=no damage to plant)
Outline: as §1

[3] = test system: giant foxtail (Setaria faberi); assay: Test G Pre-Emergence Protocol; settings: Setaria faberi, pre-emergence, 312 h, evaluated after 13 days; for pest or weed control at 15.625 g/ha: 15.625 g ai/ha; for pest or weed control at 15.625 g/ha / pest or weed control at 250 g/ha: read-out: Foxtail, Giant damage rating (100=total damage to plant; 0=no damage to plant); for pest or weed control at 62.5 g/ha: 62.5 g ai/ha, 100=total damage to plant, 0=no damage to plant, read-out: plant damage rating, Foxtail, Giant; for pest or weed control at 250 g/ha: 250 g ai/ha
Outline: as §1

[4] = test system: velvetleaf (Abutilon theophrasti); assay: Test G Pre-Emergence Protocol; settings: Abutilon theophrasti, pre-emergence, 312 h, evaluated after 13 days; for pest or weed control at 15.625 g/ha: 15.625 g ai/ha; for pest or weed control at 15.625 g/ha / pest or weed control at 250 g/ha: read-out: Velvetleaf damage rating (100=total damage to plant; 0=no damage to plant); for pest or weed control at 62.5 g/ha: 62.5 g ai/ha, 100=total damage to plant, 0=no damage to plant, read-out: plant damage rating, Velvetleaf; for pest or weed control at 250 g/ha: 250 g ai/ha
Outline: as §1

corn (Zea mays) [5] = assay: Test G Pre-Emergence Protocol; settings: Zea mays, pre-emergence, 312 h, evaluated after 13 days; for plant injury at 15.625 g/ha: 15.625 g ai/ha; for plant injury at 15.625 g/ha / plant injury at 250 g/ha: read-out: Corn damage rating (100=total damage to plant; 0=no damage to plant); for plant injury at 62.5 g/ha: 62.5 g ai/ha, 100=total damage to plant, 0=no damage to plant, read-out: plant damage rating, Corn; for plant injury at 250 g/ha: 250 g ai/ha
Outline: as §1

[6] = test system: redroot pigweed (Amaranthus retroflexus); assay: Test G Pre-Emergence Protocol; settings: Amaranthus retroflexus, pre-emergence, 312 h, evaluated after 13 days; for pest or weed control at 15.625 g/ha: 15.625 g ai/ha; for pest or weed control at 15.625 g/ha / pest or weed control at 250 g/ha: read-out: Pigweed, Redroot damage rating (100=total damage to plant; 0=no damage to plant); for pest or weed control at 62.5 g/ha: 62.5 g ai/ha, 100=total damage to plant, 0=no damage to plant, read-out: plant damage rating, Pigweed, Redroot; for pest or weed control at 250 g/ha: 250 g ai/ha
Outline: as §1

[7] = test system: barnyardgrass (Echinochloa crus-galli); assay: Test G Post-Emergence Protocol; settings: Echinochloa crus-galli, post-emergence, 312 h; for pest or weed control at 15.625 g/ha: 15.625 g ai/ha, evaluated after 13 days (100=total damage to plant; 0=no damage to plant), read-out: Barnyardgrass damage rating; for pest or weed control at 62.5 g/ha: 62.5 g ai/ha, read-out: Barnyardgrass damage rating (100=total damage to plant; 0=no damage to plant); for pest or weed control at 62.5 g/ha / pest or weed control at 250 g/ha: evaluated after 13 days; for pest or weed control at 250 g/ha: 250 g ai/ha, read-out: damage to plant, Barnyardgrass (100=total damage to plant; 0=no damage to plant)
Outline: (§2)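 Damage was rated 13 days after treatment from 0 (none) to 100 (plant killed). Compound was applied as a spray at 15.625, 62.5 or 250 g/ha in 50:50 acetone/water containing 0.5% Tween 20, onto 8-day-old potted plants kept in a glasshouse (24/16 °C, 14 h light, 65% humidity).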

[8] = test system: ivy-leaved morning glory (Ipomoea hederacea); assay: Test G Post-Emergence Protocol; settings: Ipomoea, post-emergence, 312 h; for pest or weed control at 15.625 g/ha: 15.625 g ai/ha, evaluated after 13 days (100=total damage to plant; 0=no damage to plant), read-out: Morningglory, Ivy-leaved damage rating; for pest or weed control at 62.5 g/ha: 62.5 g ai/ha, read-out: Morningglory, Ivy-leaved damage rating (100=total damage to plant; 0=no damage to plant); for pest or weed control at 62.5 g/ha / pest or weed control at 250 g/ha: evaluated after 13 days; for pest or weed control at 250 g/ha: 250 g ai/ha, read-out: damage to plant, Morningglory, Ivy-leaved (100=total damage to plant; 0=no damage to plant)
Outline: as §2

[9] = test system: giant foxtail (Setaria faberi); assay: Test G Post-Emergence Protocol; settings: Setaria faberi, post-emergence, 312 h; for pest or weed control at 15.625 g/ha: 15.625 g ai/ha, evaluated after 13 days (100=total damage to plant; 0=no damage to plant), read-out: Foxtail, Giant damage rating; for pest or weed control at 62.5 g/ha: 62.5 g ai/ha, read-out: Foxtail, Giant damage rating (100=total damage to plant; 0=no damage to plant); for pest or weed control at 62.5 g/ha / pest or weed control at 250 g/ha: evaluated after 13 days; for pest or weed control at 250 g/ha: 250 g ai/ha, read-out: damage to plant, Foxtail, Giant (100=total damage to plant; 0=no damage to plant)
Outline: as §2

[10] = test system: velvetleaf (Abutilon theophrasti); assay: Test G Post-Emergence Protocol; settings: Abutilon theophrasti, post-emergence, 312 h; for pest or weed control at 15.625 g/ha: 15.625 g ai/ha, evaluated after 13 days (100=total damage to plant; 0=no damage to plant), read-out: Velvetleaf damage rating; for pest or weed control at 62.5 g/ha: 62.5 g ai/ha, read-out: Velvetleaf damage rating (100=total damage to plant; 0=no damage to plant); for pest or weed control at 62.5 g/ha / pest or weed control at 250 g/ha: evaluated after 13 days; for pest or weed control at 250 g/ha: 250 g ai/ha, read-out: damage to plant, Velvetleaf (100=total damage to plant; 0=no damage to plant)
Outline: as §2

corn (Zea mays) [11] = assay: Test G Post-Emergence Protocol; settings: Zea mays, post-emergence, 312 h; for plant injury at 15.625 g/ha: 15.625 g ai/ha, evaluated after 13 days (100=total damage to plant; 0=no damage to plant), read-out: Corn damage rating; for plant injury at 62.5 g/ha: 62.5 g ai/ha, read-out: Corn damage rating (100=total damage to plant; 0=no damage to plant); for plant injury at 62.5 g/ha / plant injury at 250 g/ha: evaluated after 13 days; for plant injury at 250 g/ha: 250 g ai/ha, read-out: damage to plant, Corn (100=total damage to plant; 0=no damage to plant)
Outline: as §2

[12] = test system: redroot pigweed (Amaranthus retroflexus); assay: Test G Post-Emergence Protocol; settings: Amaranthus retroflexus, post-emergence, 312 h; for pest or weed control at 15.625 g/ha: 15.625 g ai/ha, evaluated after 13 days (100=total damage to plant; 0=no damage to plant), read-out: Pigweed, Redroot damage rating; for pest or weed control at 62.5 g/ha: 62.5 g ai/ha, read-out: Pigweed, Redroot damage rating (100=total damage to plant; 0=no damage to plant); for pest or weed control at 62.5 g/ha / pest or weed control at 250 g/ha: evaluated after 13 days; for pest or weed control at 250 g/ha: 250 g ai/ha, read-out: damage to plant, Pigweed, Redroot (100=total damage to plant; 0=no damage to plant)
Outline: as §2

| SMILES | pest or weed control at 15.625 g/ha [1] [%] | pest or weed control at 62.5 g/ha [1] [%] | pest or weed control at 250 g/ha [1] [%] | pest or weed control at 15.625 g/ha [2] [%] | pest or weed control at 62.5 g/ha [2] [%] | pest or weed control at 250 g/ha [2] [%] | pest or weed control at 15.625 g/ha [3] [%] | pest or weed control at 62.5 g/ha [3] [%] | pest or weed control at 250 g/ha [3] [%] | pest or weed control at 15.625 g/ha [4] [%] | pest or weed control at 62.5 g/ha [4] [%] | pest or weed control at 250 g/ha [4] [%] | plant injury at 15.625 g/ha (corn (Zea mays) [5]) [%] | plant injury at 62.5 g/ha (corn (Zea mays) [5]) [%] | plant injury at 250 g/ha (corn (Zea mays) [5]) [%] | pest or weed control at 15.625 g/ha [6] [%] | pest or weed control at 62.5 g/ha [6] [%] | pest or weed control at 250 g/ha [6] [%] | pest or weed control at 15.625 g/ha [7] [%] | pest or weed control at 62.5 g/ha [7] [%] | other results |
| --- | --- | --- | --- | --- | --- | --- | --- | --- | --- | --- | --- | --- | --- | --- | --- | --- | --- | --- | --- | --- | --- |
| Cc1csc(NC(=O)[C@@H]2C(=O)N(C)C[C@H]2c2ccc(C(F)(F)F)cc2)c1C#N (racemic) [Compound 1576] | 30 | 70 | 90 | 0 | 0 | 0 | 30 | 70 | 70 | 0 | 0 | 0 | 0 | 0 | 20 | 0 | 0 | 20 | 10 | 60 | pest or weed control at 250 g/ha [7]: 70%; pest or weed control at 15.625 g/ha [8]: 0%; pest or weed control at 62.5 g/ha [8]: 20%; pest or weed control at 250 g/ha [8]: 20%; pest or weed control at 15.625 g/ha [9]: 30%; pest or weed control at 62.5 g/ha [9]: 40%; pest or weed control at 250 g/ha [9]: 70%; pest or weed control at 15.625 g/ha [10]: 0%; pest or weed control at 62.5 g/ha [10]: 0%; pest or weed control at 250 g/ha [10]: 10%; plant injury at 15.625 g/ha (corn (Zea mays) [11]): 0%; plant injury at 62.5 g/ha (corn (Zea mays) [11]): 20%; plant injury at 250 g/ha (corn (Zea mays) [11]): 10%; pest or weed control at 15.625 g/ha [12]: 0%; pest or weed control at 62.5 g/ha [12]: 0%; pest or weed control at 250 g/ha [12]: 0% |
| CN1C[C@@H](c2ccc(C(F)(F)F)cc2)[C@H](C(=O)Nc2cccnn2)C1=O (racemic) [Compound 1577] | 0 | 0 | 0 | 0 | 0 | 0 | 0 | 0 | 0 | 0 | 0 | 0 | 0 | 0 | 0 | 0 | 0 | 0 | 0 | 0 | pest or weed control at 250 g/ha [7]: 0%; pest or weed control at 15.625 g/ha [8]: 0%; pest or weed control at 62.5 g/ha [8]: 0%; pest or weed control at 250 g/ha [8]: 0%; pest or weed control at 15.625 g/ha [9]: 0%; pest or weed control at 62.5 g/ha [9]: 0%; pest or weed control at 250 g/ha [9]: 0%; pest or weed control at 15.625 g/ha [10]: 0%; pest or weed control at 62.5 g/ha [10]: 0%; pest or weed control at 250 g/ha [10]: 0%; plant injury at 15.625 g/ha (corn (Zea mays) [11]): 0%; plant injury at 62.5 g/ha (corn (Zea mays) [11]): 0%; plant injury at 250 g/ha (corn (Zea mays) [11]): 0%; pest or weed control at 15.625 g/ha [12]: 0%; pest or weed control at 62.5 g/ha [12]: 0%; pest or weed control at 250 g/ha [12]: 0% |
| Cc1cc(NC(=O)[C@@H]2C(=O)N(C)C[C@H]2c2ccc(C(F)(F)F)cc2)on1 (racemic) [Compound 1579] | 0 | 0 | 0 | 0 | 0 | 0 | 0 | 0 | 0 | 0 | 0 | 0 | 0 | 0 | 0 | 0 | 0 | 0 | 0 | 10 | pest or weed control at 250 g/ha [7]: 10%; pest or weed control at 15.625 g/ha [8]: 0%; pest or weed control at 62.5 g/ha [8]: 0%; pest or weed control at 250 g/ha [8]: 0%; pest or weed control at 15.625 g/ha [9]: 0%; pest or weed control at 62.5 g/ha [9]: 0%; pest or weed control at 250 g/ha [9]: 0%; pest or weed control at 15.625 g/ha [10]: 0%; pest or weed control at 62.5 g/ha [10]: 0%; pest or weed control at 250 g/ha [10]: 0%; plant injury at 15.625 g/ha (corn (Zea mays) [11]): 0%; plant injury at 62.5 g/ha (corn (Zea mays) [11]): 0%; plant injury at 250 g/ha (corn (Zea mays) [11]): 0%; pest or weed control at 15.625 g/ha [12]: 0%; pest or weed control at 62.5 g/ha [12]: 0%; pest or weed control at 250 g/ha [12]: 0% |
